Structures can show the parent of a compound that is named as a salt. Where two headings read alike, the source gives them in different places. One block for each molecule: values may come before it.
Legend:
salmonella mutants = assay: Ames mutagenicity, overall; type: cell-based, Salmonella typhimurium; details: 0.6 mg/ml; words
Description: (§1) The standard Ames mutagenicity test using salmonella mutants was performed on brominated sensitizer 8B at 0.6 mg/ml.

[1] = system: Salmonella typhimurium TA1538; assay: Ames mutagenicity, plate incorporation assay; type: cell-based
Description: as §1

[2] = system: Salmonella typhimurium TA100; assay: Ames mutagenicity, plate incorporation assay; type: cell-based
Description: as §1

[3] = system: Salmonella typhimurium TA98; assay: Ames mutagenicity, plate incorporation assay; type: cell-based
Description: as §1

[4] = system: Salmonella typhimurium TA1535; assay: Ames mutagenicity, plate incorporation assay; type: cell-based
Description: as §1

[5] = system: Salmonella typhimurium TA1537; assay: Ames mutagenicity, plate incorporation assay; type: cell-based
Description: as §1

λ = assay: Inactivation of viruses in human plasma and bovine serum with UV activation; type: cell-based, λ phage; details: light or radiation study, 0.5 h, Fetal bovine serum, 0.03 mg/ml, UVA 30 min (8.4 J/cm^2), read-out: Viral Reduction (log)
Description: Viral inactivation in FBS was carried out in 100 ml serum samples in 225 cm^2 tissue culture flask in the presence of sensitizer 8B (0.03 mg/ml). The sample was exposed to UVA light from top (3.6 mW/cm^2) and bottom (3.4 mW/cm^2) while continuously mixing on an orbital shaker for 30 min. (8.4 J/cm^2). Human plasma was irradiated in a Pyrex glass photolysis cell in the presence of sensitizer 8 (0.1 mg/ml) for 5 min. Inactivation of various bacteriophages were carried out using brominated psoralens in combination with UVA light. The results in Table 5 clearly indicate that 5-7 logs of viral reduction was obtained with various phage (enveloped and non-enveloped) in human plasma fractions and fetal bovine serum products.

.phi.6 phage [6] = assay: Viral inactivation in red blood cells (UVA, full units); type: cell-based; details: Erythrocyte, light or radiation study
Description: (§2) Units of packed red cells were transferred to Stericon red cell freezing bags and the hematocrits were adjusted to 60% with PBS. The samples were spiked with 5×10^6 PFU/ml .phi.6 phage and 0.3 mg/mL sensitizer 8B. The contents of the bag were exposed to UVA light from top (3.6 mW/cm^2) and bottom (3.4 mW/cm^2) for 6 hours (151.2 J/cm^2). The samples were mixed continuously during UVA exposure on an orbital shaker. The final viral titre in the sample was determined by the plaque method. In vitro biochemical and biophysical properties of treated red cells were monitored for 7 days following the treatment.
(§3) Viral inactivation treatment was carried out in packed red cells (full
(§4) units, 60% Hct.) containing model virus (.phi.6 phage) and 8B sensitizer
(§5) (0.3 mg/mL) in a Sericon red cells freezing bag (altered). The bags were
(§6) irradiated from top (3.6 mW/cm^2) and bottom (3.4 mW/cm^2) in a
(§7) home made reactor for 6 hours (151.2 J/cm^2). The sample was mixed
(§8) continuously during UVA exposure on a orbital shaker.

.phi.6 phage [7] = assay: Viral inactivation in single unit platelet concentrates (UVA); type: cell-based; details: light or radiation study, 10 min
Description: (§9) Single unit platelet concentrates were obtained 24 hours after collection from certified blood banks. The platelets were subjected to soft spin to remove residual RBC and about 6 logs of .phi.6 phage and sensitizer 8B were added in PBS solution to obtain 0.03 mg/ml final sensitizer concentration. The samples were transferred to Stericonpolyolefin bag (which transmits 60% of UVA light) and irradiated from top (3.6 mW/cm^2)and bottom (3.4 mW/cm^2) in a home made reactor for 10 min. The bags were continuously mixed on extended glass platform attached to orbital shaker. The viral inactivation values and in vitro properties of platelet concentrates were monitored for 2 days after the treatment.
(§10) Single units of platelet concentrates in Cryocyte ™ bag containing 0.03
(§11) mg/mL #8B sensitizer (Appendix I) were irradiated from top (3.6
(§12) mW/cm^2) and bottom (3.4 mW/cm^2) using UVA radiation in a home
(§13) made reactor for 10 min (4.2 J/cm^2). After the treatment platelet
(§14) concentrates were transferred into original platelet containers and stored
(§15) in a platelet incubator for indicated period of time.
(§16) Platelet viability assays were carried out immediately after treatment and
following 24 & 48 hours storage in a platelet incubator. The viral
(§17) reduction in treated samples was determined by the plaque assay. The
(§18) values are mean ±S.D (n = 3)

red cells = assay: Red cell in vitro properties after viral inactivation treatment (UVA); type: cell-based; parameters: MCV / MCH / MCHC: unit not given here; details: for % Hemichrome / % Met Hb. / % Oxy Hb. / MCH / MCHC / MCV / DI Max % control: Treated; for % Hemichrome / % Met Hb. / % Oxy Hb. / MCH / MCHC / MCV: UVA 6 hours; for DI Max % control: ektacytometry
Description: as §2
DI Max, Deformability index by ektacytometry
as §3, §4, §5, §6, §7, §8
Data was collected from 3 separate experiments and the values are mean

[8] = system: single unit platelet concentrates; assay: Platelet in vitro properties in single unit platelet concentrates after UVA treatment; type: cell-based; parameters: ADP Agg. / Collagen / HSR: unit not given here; details: for ADP Agg. / Cell count / Collagen / HSR / Morphology / pH: Treated, 0.03 mg/mL, UVA 10 min
Description: as §9, §10, §11, §12, §13, §14, §15, §16, §17, §18

.phi.6 phage [9] = assay: Comparison of viral inactivation efficiencies of brominated and non-brominated sensitizers in platelets (UVA); type: cell-based; details: 8B versus 8C, 0.1 mg/ml, UVA 3.3 mW/cm^2
Description: To test the viral inactivation efficiency of brominated sensitizers, platelet preparations (2 ml, PRP) were spiked with .phi.6 phage and brominated psoralen (8B) and non-brominated psoralen(8C) were added to obtain final sensitizer concentration of 0.1 mg/ml. The samples were exposed to UVA light in a home made reactor consisting of 4 UVA lamps for the indicated time periods. The petri dishes containing samples were mixed on an orbital shaker during UVA exposure. The UVA light intensity at the sample position was measured at 3.3 mW/cm^2. The residual viral titre after each time point was measured by plaque method. The viral reduction values are illustrated in FIG. 26.

platelets = type: cell-based
Description: The viral inactivation values and in vitro properties of platelets subjected to viral inactivation treatment using various derivatives of psoralen are summarized in Table 1.
2 mL PRP samples (plastic disposable petri dishes) containing 0.1 mg/mL
sensitizer were irradiated with UVA for 6 min. (1.19 J/cm^2). The
intensity of UVA radiation at sample position was measured at 3.3
mW/cm^2. The data was obtained from three separate experiments using
different platelet concentrates. Values are mean ± SD.

cell damage = assay: Cell damage by derivatives with free hydrogen atoms on the ammonium group; type: cell-based; details: words

Compound: CC[N+](CC)(CC)CCCOc1c2occc2c(Br)c2ccc(=O)oc12 [Sensitizer #8B, 5-Bromo-8 (γ-Triethylaminopropyloxy) Psoralen Hydrochloride]
- mutagenicity (salmonella mutants): non-mutagenic
- Number of Revertan Colonies ([1]; TA1538, with S-9, average of duplicate plates): 25
- Number of Revertan Colonies ([1]; TA1538, without S-9, average of duplicate plates): 22
- Number of Revertan Colonies ([2]; TA100, with S-9, average of duplicate plates): 245
- Number of Revertan Colonies ([2]; TA100, without S-9, average of duplicate plates): 164
- Number of Revertan Colonies ([3]; TA98, with S-9, average of duplicate plates): 83
- Number of Revertan Colonies ([3]; TA98, without S-9, average of duplicate plates): 55
- Number of Revertan Colonies ([4]; TA1535, with S-9, average of duplicate plates): 197
- Number of Revertan Colonies ([4]; TA1535, without S-9, average of duplicate plates): 173
- Number of Revertan Colonies ([5]; TA1537, with S-9, average of duplicate plates): 26
- Number of Revertan Colonies ([5]; TA1537, without S-9, average of duplicate plates): 36
- log reduction at 30 µg/mL (λ): 6.6
- log reduction at 300 µg/mL (.phi.6 phage [6]; 6 h, read-out: viral reduction): > 6.6
- log reduction at 300 µg/mL (.phi.6 phage [6]; Treated, Day 1, 0.3 mg/mL, UVA 6 hours (151.2 J/cm^2), read-out: Viral Reduction (log)): 6.6 ± 0.1
- log reduction at 30 µg/mL (.phi.6 phage [7]; Treated, 0 Hour, 0.03 mg/mL, UVA 10 min (4.2 J/cm^2), n = 4, read-out: V.I): 5.3 ± 0.2
- log reduction at 30 µg/mL (.phi.6 phage [7]; read-out: viral reduction): > 5.3
- in vitro biochemical and biophysical properties of red cells (red cells; Example 16 text, words): without any significant alterations
- % Hemichrome (red cells; Day 1, 0.3 mg/mL): 1.9 ± 1.5%
- % Met Hb. (red cells; Day 1, 0.3 mg/mL): 2.9 ± 1.5%
- % Oxy Hb. (red cells; Day 1, 0.3 mg/mL): 95.2 ± 0.1%
- MCH (red cells; Day 1, 0.3 mg/mL): 30.9 ± 0.1
- MCHC (red cells; Day 1, 0.3 mg/mL): 34.9 ± 0.4
- MCV (red cells; Day 1, 0.3 mg/mL): 88.8 ± 2.5
- DI Max % control (red cells; Day 1, 0.3 mg/mL): 97.4 ± 3.6 % control
- % Hemichrome (red cells; Day 2, 0.3 mg/mL): 0.6 ± 0.9%
- % Met Hb. (red cells; Day 2, 0.3 mg/mL): 1.7 ± 1.7%
- % Oxy Hb. (red cells; Day 2, 0.3 mg/mL): 97.7 ± 1.7%
- MCH (red cells; Day 2, 0.3 mg/mL): 30.3 ± 0.4
- MCHC (red cells; Day 2, 0.3 mg/mL): 33.8 ± 0.9
- MCV (red cells; Day 2, 0.3 mg/mL): 89.8 ± 1.7
- DI Max % control (red cells; Day 2, 0.3 mg/mL): 99.6 ± 3.8 % control
- % Hemichrome (red cells; Day 7, 0.3 mg/mL): 0.2 ± 0.2%
- % Met Hb. (red cells; Day 7, 0.3 mg/mL): 1.4 ± 1.2%
- % Oxy Hb. (red cells; Day 7, 0.3 mg/mL): 98.5 ± 1.0%
- MCH (red cells; Day 7, 0.3 mg/mL): 30.1 ± 0.8
- MCHC (red cells; Day 7, 0.3 mg/mL): 33.6 ± 1.6
- MCV (red cells; Day 7, 0.3 mg/mL): 89.8 ± 1.7
- DI Max % control (red cells; Day 7, 0.3 mg/mL): 99.0 ± 5.9 % control
- platelet in vitro properties ([8]; Example 15 text, words): excellent retention of platelet in vitro properties
- ADP Agg. ([8]; 0 Hour): 43 ± 12
- Cell count ([8]; 0 Hour): 474 ± 20
- Collagen ([8]; 0 Hour): 72 ± 3
- HSR ([8]; 0 Hour): 65 ± 8
- Morphology ([8]; 0 Hour): 233 ± 17
- pH ([8]; 0 Hour): 7.2 ± 0.1
- ADP Agg. ([8]; 24 Hours): 34 ± 19
- Cell count ([8]; 24 Hours): 499 ± 50
- Collagen ([8]; 24 Hours): 65 ± 3
- HSR ([8]; 24 Hours): 65 ± 6
- Morphology ([8]; 24 Hours): 230 ± 19
- pH ([8]; 24 Hours): 7.1 ± 0.2
- Collagen ([8]; 43 Hours): 60 ± 4
- pH ([8]; 43 Hours): 6.8 ± 0.1
- HSR ([8]; 48 Hours): 70 ± 6
- improvement in the level of viral inactivation (brominated versus non-brominated) (.phi.6 phage [9]): ≤ 400 fold

- hypotonic shock response (HSR) and ADP aggregation response relative to the control (platelets): substantial reduction
Compound: Cc1oc2c(C)c3oc(=O)cc(C)c3cc2c1CN [AMT, 4'-aminomethyl-4,5',8-trimethylpsoralen]
- cell damage (cell damage): unacceptable levels of cell damage

From US6187572A, “Method of inactivation of viral and bacterial blood contaminants” (Baxter International Inc., priority 1993, dated 2001)
